Experimental data reported in patent US20220354849A1, “COMPOSITION FOR PREVENTING OR TREATING METABOLIC LIVER DISEASE” (STANDIGM INC., priority 2019, published 2022).
“And” between values parts separate entries of the source, which are not always exact repeats. Equal values may be shown once.

Key:
[1] = test system: NASH model mice; assay: NASH model mice (STZ + high-fat diet), intraperitoneal trametinib study: liver histology, NAFLD activity score, fibrosis area, liver weight; format: in vivo, mouse (C57BL/6); set-up: key to NAFLD activity score (NAS): NAS: sum of steatosis, inflammation, ballooning scores (Kleiner criteria); key to steatosis score / ballooning score: severity score per Kleiner's criteria on H&E sections; fibrosis area score (sirius red-positive area): unit not given here; conditions: for fibrosis area score (sirius red-positive area) / NAFLD activity score (NAS): telmisartan 10 mg/kg p.o., once daily 6 to 9 weeks of age; for fibrosis area score (sirius red-positive area): vehicle 0.89±0.19; for NAFLD activity score (NAS): vehicle 4.38±0.52
Source text: (§1) Pathogen-free C57BL/6 mice on the 14th day of pregnancy were obtained from Japan SLC, Inc. (Japan).
(§2) NASH was established in male mice by a single subcutaneous injection of […] streptozotocin (STZ, Sigma, USA) 2 days after birth and feeding with a high-fat diet (CLEA Japan Inc., Japan) ad libitum after 4 weeks of age (day 28±2).
On the day before the start of administration based on the body weight of mice, the NASH mice at 6 weeks of age (day 42±2) prepared in Example 1 were randomly divided into 3 groups of 8 mice.
The present inventors selected trametinib as a substance expected to have a therapeutic effect on non-alcoholic steatohepatitis through a screening method using artificial intelligence (AI) deep learning technology. In order to identify whether the substance has an effect on non-alcoholic steatohepatitis, the 3 groups of mice were each intraperitoneally or orally administered with the following compounds at an amount of about […]. As the negative control group of trametinib in the present invention, the vehicle administration group was treated with a solvent of the same amount used for compound dissolution. Telmisartan (Boehringer Ingelheim GmbH, Germany) was used in the positive control group. The telmisartan is a compound which has anti-NASH, anti-fibrosis, and anti-inflammatory effects in NASH and in a liver disease animal model related to NASH.
Group 1 (vehicle administration group: negative control group): 8 NASH mice were intraperitoneally administered with a vehicle (4% DMSO in saline) in a volume of 5 mL/kg once daily from 6 weeks to 9 weeks of age.
Group 2 (telmisartan administration group: positive control group): 8 NASH mice were orally administered with purified water supplemented with telmisartan at a dose of 10 mg/kg once daily from 6 weeks to 9 weeks of age.
Group 3 (trametinib administration group: experimental group): 8 NASH mice were intraperitoneally administered with a vehicle supplemented with trametinib at a dose of 2 mg/kg once daily from 6 weeks to 9 weeks of age.
(§3) The body weight of each mouse was measured daily during the administration period, and the survival rate, clinical symptoms, and behaviors of each mouse were monitored daily.
For histological analysis of liver tissue, mice in Groups 1 to 3 were sacrificed at 9 weeks of age, and the liver was excised therefrom.
For H&E staining, after sectioning liver tissue, a liver tissue slide fixed with paraffin was immersed in a xylene solution for 3 minutes to remove the paraffin. Thereafter, in order to remove the xylene, the liver tissue slide was immersed in 100% ethanol for 3 minutes and then hydrated with distilled water. Subsequently, the liver tissue slide was immersed in a hematoxylin solution for 5 to 10 minutes and then hydrated with distilled water for 5 minutes, followed by quickly immersing it twice in a 1% HCl solution, and then hydrating with distilled water. Then, the liver tissue slide was immersed in a 1% ammonia solution for 2 minutes to stain the tissue blue. Thereafter, the liver tissue stained blue was immersed in an eosin solution for 2 minutes, followed by immersing the resultant in ethanol for about 3 to 5 minutes. Lastly, the liver tissue was immersed in a xylene solution, whereupon the thus-stained liver fragment was observed under a microscope.
The NAFLD activity score (NAS) is a combined value obtained by considering each condition of steatosis, inflammation, and ballooning, which are observed in a liver section stained with H&E. The NAFLD score was calculated according to Kleiner's criteria (Kleiner DE et al., 2005).
Steatosis, inflammation, and ballooning scores were determined according to severity of symptoms based on observation in H&E-stained liver sections.
For sirius red staining, a sirius red reagent was maintained in an equilibrium state and stirred gently. […]

[2] = test system: NASH model mice; assay: NASH model mice (STZ + high-fat diet), oral trametinib study: liver histology, NAFLD activity score, fibrosis area, liver weight; format: in vivo, mouse (C57BL/6); set-up: fibrosis area score (sirius red-positive area): unit not given here; conditions: for fibrosis area score (sirius red-positive area) / NAFLD activity score (NAS): telmisartan 10 mg/kg p.o., once daily 6 to 9 weeks of age; for fibrosis area score (sirius red-positive area): vehicle 0.69±0.13; for NAFLD activity score (NAS): vehicle 4.29±0.49
Source text: as §1, §2
In order to determine a safe oral administration dose of trametinib, as in Example 2, the NASH mice in Example 1 were randomly divided into 3 groups of 7 or 8 mice.Thereafter, the mice of 3 groups were orally administered with the following compounds at about […].
Group 1 (vehicle administration group:negative control group): 7 NASH mice were orally administered with a vehicle (1% DMSO in saline) in a volume of 10 mL/kg once daily from 6 weeks to 9 weeks of age.
Group 2 (telmisartan administration group:positive control group): 8 NASH mice were orally administered with purified water supplemented with telmisartan at a dose of 10 mg/kg (in a volume of 10 mL/kg) once daily from 6 weeks to 9 weeks of age.
Group 3 (trametinib administration group:experimental group): 8 NASH mice were orally administered with a vehicle supplemented with trametinib at a dose of 0.2 mg/kg (in a volume of 10 mL/kg) once daily from 6 weeks to 9 weeks of age.
as §3
For histological analysis of liver tissue, mice in Groups 1 to 3 of Example 5 were sacrificed at 9 weeks of age, and then H&E staining, NAFLD activity score measurement, and sirius red staining were performed according to the method of Example 3.
The NAFLD activity score for liver tissue was estimated according to the method of Example 3-2.
According to the method of Example 3-4, a percentage of a fibrosis area due to inflammation and a value of a sirius red-positive area were each estimated through sirius red staining.
Statistical analysis of the data of the Examples above was performed using the Bonferroni Multiple Comparison Test. p<0.05 was regarded as statistically significant.

[3] = trametinib 2 mg/kg i.p. once daily, 6 to 9 weeks of age
[4] = trametinib 0.2 mg/kg p.o. once daily, 6 to 9 weeks of age

In the case of `CC(=O)Nc1cccc(-n2c(=O)n(C3CC3)c(=O)c3c(Nc4ccc(I)cc4F)n(C)c(=O)c(C)c32)c1` [trametinib, N—(3—{3—cyclopropyl—5-[(2-fluoro-4-iodophenyl)amino]-6,8-dimethyl-2,4,7-trioxo-3 ,4,6,7-tetrahydropyrido [4,3-d]pyrimidin-1(2H)-yl}phenyl)acetamide], the steatosis score ([1]; trametinib 2 mg/kg i.p. once daily from 6 to 9 weeks of age, H&E liver sections, vehicle average 0.8) is reported as 0, the “fibrosis (sirius red staining) compared to vehicle administration group” value [1, 3] is reported as “alleviated” and the “pathological conditions of liver tissue (H&E staining) compared to vehicle administration group” value [1, 3] is reported as “improved”. For the same molecule, the “reduction of average liver weight compared to vehicle administration group” value [1, 3] was 40%, the “subjects with a ballooning score of 0, share of total number of subjects” value [1, 3] was 100% and the “number of subjects with a ballooning score of 0” value ([1]; trametinib 2 mg/kg i.p. once daily, 6 to 9 weeks of age, 8 mice) was “eight”. It also gave a ballooning score ([1]; trametinib 2 mg/kg i.p. once daily, 6 to 9 weeks of age, all subjects) of 0, a liver-to-body weight ratio ([1]; trametinib 2 mg/kg i.p. once daily, 6 to 9 weeks of age, vehicle 7.0±0.8%) of 5.3±0.96% and an average liver weight ([1]; trametinib 2 mg/kg i.p. once daily, 6 to 9 weeks of age, vehicle 1444±106 mg) of 873 ± 218 mg. For the same molecule, the “fibrosis area score (sirius red-positive area)” value (“fibrosis area score” for short) ([1]; trametinib 2 mg/kg i.p.) was 0.50±0.13 and 0.5, the “NAFLD activity score (NAS)” value ([1]; trametinib 2 mg/kg i.p.) was 2.63±0.52 and the “percentage of fibrosis area compared to vehicle administration group” value ([1]; trametinib 2 mg/kg i.p., sirius red staining, p<0.0001) was “remarkable decrease”. The “pathological conditions (sirius red staining) compared to vehicle administration group” value [2, 4] was “improved”, the “pathological conditions of liver tissue (H&E staining) compared to vehicle administration group” value [2, 4] was “improved” and the steatosis score ([2]; trametinib 0.2 mg/kg p.o. once daily, 6 to 9 weeks of age, mean ± standard deviation, vehicle 0.86±0.38) was 0.38±0.52 and 0.4. For the same molecule, the inflammation score ([2]; trametinib 0.2 mg/kg p.o. once daily, 6 to 9 weeks of age, vehicle 2.71±0.49) was 1.75±0.71 and 1.8, the liver-to-body weight ratio ([2]; trametinib 0.2 mg/kg p.o. once daily, 6 to 9 weeks of age, vehicle 8.7±0.8%) was 7.4±0.8% and the average liver weight ([2]; trametinib 0.2 mg/kg p.o. once daily, 6 to 9 weeks of age, vehicle 1776±189 mg) was 1466 ± 169 mg. For the same molecule, the “number of subjects with a steatosis score of 1” value ([2]; trametinib 0.2 mg/kg p.o. once daily, 8 mice, vehicle 6 subjects) was 3, the “fibrosis area score” value ([2]; trametinib 0.2 mg/kg p.o.) was 0.34±0.15 and 0.3 and the “NAFLD activity score (NAS)” value ([2]; trametinib 0.2 mg/kg p.o.) was 2.88±1.13. For the same molecule, the “percentage of fibrosis area compared to vehicle administration group” value ([2]; trametinib 0.2 mg/kg p.o., sirius red staining) was “reduced”.
`CCCc1nc2c(C)cc(-c3nc4ccccc4n3C)cc2n1Cc1ccc(-c2ccccc2C(=O)O)cc1` [telmisartan] was tested, and the “number of subjects with a steatosis score of 1” value ([1]; telmisartan 10 mg/kg p.o. once daily, 6 to 9 weeks of age, 8 mice, vehicle 6 subjects) was 1, the “fibrosis area score” value ([1]; trametinib 2 mg/kg i.p.) was 0.40±0.15 and 0.4 and the “NAFLD activity score (NAS)” value ([1]; trametinib 2 mg/kg i.p.) was 2.75±0.46. The “fibrosis area score” value ([2]; trametinib 0.2 mg/kg p.o.) was 0.44±0.06 and 0.4 and the “NAFLD activity score (NAS)” value ([2]; trametinib 0.2 mg/kg p.o.) was 2.25±0.46.
